Source: the supplement of paper PMC6125532
In brackets after ≈: the same amount, converted by molar mass.

What was measured:
[1] = system: Mycobacterium tuberculosis CRY-12; CRY-24
Protocol: (§1)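 Resazurin microtiter assay (REMA) MICs of anti-TB drugs against 19 EQA Mycobacterium tuberculosis strains (clinical or proficiency isolates plus H37Rv). Drugs were tested in doubling dilutions. Each value is the consensus of two measurements; where they disagreed the lower value was taken.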

[2] = system: Mycobacterium tuberculosis CRY-14
Protocol: as §1

[3] = system: Mycobacterium tuberculosis CRY-15; CRY-21
Protocol: as §1

[4] = system: Mycobacterium tuberculosis CRY-16
Protocol: as §1

[5] = system: Mycobacterium tuberculosis CRY-19
Protocol: as §1

[6] = system: Mycobacterium tuberculosis CRY-1; CRY-17
Protocol: as §1

[7] = system: Mycobacterium tuberculosis CRY-20
Protocol: as §1

[8] = system: Mycobacterium tuberculosis CRY-23
Protocol: as §1

[9] = system: Mycobacterium tuberculosis CRY-26
Protocol: as §1

[10] = system: Mycobacterium tuberculosis CRY-27
Protocol: as §1

[11] = system: Mycobacterium tuberculosis CRY-28
Protocol: as §1

[12] = system: Mycobacterium tuberculosis CRY-2; CRY-25
Protocol: as §1

[13] = system: Mycobacterium tuberculosis CRY-3; CRY-11
Protocol: as §1

[14] = system: Mycobacterium tuberculosis CRY-4; CRY-30
Protocol: as §1

[15] = system: Mycobacterium tuberculosis CRY-5; CRY-10
Protocol: as §1

[16] = system: Mycobacterium tuberculosis CRY-6; CRY-29
Protocol: as §1

[17] = system: Mycobacterium tuberculosis CRY-7; CRY-18
Protocol: as §1

[18] = system: Mycobacterium tuberculosis CRY-8; CRY-13
Protocol: as §1

[19] = system: Mycobacterium tuberculosis CRY-9; CRY-22
Protocol: as §1

| Compound | MIC (REMA) [1] [µg/mL] | MIC (REMA) [2] [µg/mL] | MIC (REMA) [3] [µg/mL] | MIC (REMA) [4] [µg/mL] | MIC (REMA) [5] [µg/mL] | MIC (REMA) [6] [µg/mL] | MIC (REMA) [7] [µg/mL] | MIC (REMA) [8] [µg/mL] | MIC (REMA) [9] [µg/mL] | MIC (REMA) [10] [µg/mL] | MIC (REMA) [11] [µg/mL] | MIC (REMA) [12] [µg/mL] | MIC (REMA) [13] [µg/mL] | MIC (REMA) [14] [µg/mL] | MIC (REMA) [15] [µg/mL] | MIC (REMA) [16] [µg/mL] | MIC (REMA) [17] [µg/mL] | MIC (REMA) [18] [µg/mL] | MIC (REMA) [19] [µg/mL] |
| --- | --- | --- | --- | --- | --- | --- | --- | --- | --- | --- | --- | --- | --- | --- | --- | --- | --- | --- | --- |
| CC[C@@H](CO)NCCN[C@@H](CC)CO [Ethambutol] | 1 (≈ 4.89 µM) | 4 (≈ 19.6 µM) | 1 (≈ 4.89 µM) | 4 (≈ 19.6 µM) | 0.5 (≈ 2.45 µM) | 4 (≈ 19.6 µM) | – | 1 (≈ 4.89 µM) | 0.5 (≈ 2.45 µM) | 1 (≈ 4.89 µM) | 0.5 (≈ 2.45 µM) | 1 (≈ 4.89 µM) | 1 (≈ 4.89 µM) | – | – | 1 (≈ 4.89 µM) | – | – | – |
| C[C@]1(COc2ccc(N3CCC(Oc4ccc(OC(F)(F)F)cc4)CC3)cc2)Cn2cc([N+](=O)[O-])nc2O1 [Delamanid] | 0.03 (≈ 0.0561 µM) | 0.015 (≈ 0.0281 µM) | 0.125 (≈ 0.234 µM) | 0.03 (≈ 0.0561 µM) | 0.015 (≈ 0.0281 µM) | > 2 | 0.015 (≈ 0.0281 µM) | 0.03 (≈ 0.0561 µM) | 0.015 (≈ 0.0281 µM) | 0.25 (≈ 0.468 µM) | 0.008 (≈ 0.015 µM) | 0.03 (≈ 0.0561 µM) | 0.06 (≈ 0.112 µM) | 0.03 (≈ 0.0561 µM) | 0.125 (≈ 0.234 µM) | 0.015 (≈ 0.0281 µM) | 0.06 (≈ 0.112 µM) | 0.03 (≈ 0.0561 µM) | 2 (≈ 3.74 µM) |
| NNC(=O)c1ccncc1 [Isoniazid] | – | > 8 | – | ≤ 0.015 | 0.125 (≈ 0.911 µM) | > 8 | – | > 8 | 0.03 (≈ 0.219 µM) | – | > 8 | – | 0.06 (≈ 0.438 µM) | – | > 8 | > 8 | > 8 | > 8 | 0.03 (≈ 0.219 µM) |
| C[C@H]1COc2c(N3CCN(C)CC3)c(F)cc3c(=O)c(C(=O)O)cn1c23 [Levofloxacin] | 0.25 (≈ 0.692 µM) | 0.06 (≈ 0.166 µM) | 0.125 (≈ 0.346 µM) | 0.25 (≈ 0.692 µM) | 0.125 (≈ 0.346 µM) | 0.125 (≈ 0.346 µM) | 0.125 (≈ 0.346 µM) | 0.06 (≈ 0.166 µM) | 0.25 (≈ 0.692 µM) | 0.25 (≈ 0.692 µM) | 0.06 (≈ 0.166 µM) | – | 0.25 (≈ 0.692 µM) | 0.25 (≈ 0.692 µM) | – | 0.125 (≈ 0.346 µM) | – | – | 0.125 (≈ 0.346 µM) |
| COc1nc2ccc(Br)cc2cc1[C@@H](c1ccccc1)[C@@](O)(CCN(C)C)c1cccc2ccccc12 [Bedaquiline] | 0.5 (≈ 0.9 µM) | ≤ 0.004 | 2 (≈ 3.6 µM) | 0.03 (≈ 0.054 µM) | 0.015 (≈ 0.027 µM) | 0.06 (≈ 0.108 µM) | 0.03 (≈ 0.054 µM) | 0.008 (≈ 0.0144 µM) | 0.03 (≈ 0.054 µM) | 0.06 (≈ 0.108 µM) | 0.015 (≈ 0.027 µM) | 0.06 (≈ 0.108 µM) | 0.12 (≈ 0.216 µM) | 0.015 (≈ 0.027 µM) | 0.015 (≈ 0.027 µM) | 0.03 (≈ 0.054 µM) | 0.06 (≈ 0.108 µM) | 0.06 (≈ 0.108 µM) | 0.25 (≈ 0.45 µM) |
| COc1c(N2C[C@@H]3CCCN[C@@H]3C2)c(F)cc2c(=O)c(C(=O)O)cn(C3CC3)c12 [Moxifloxacin] | 0.06 (≈ 0.149 µM) | ≤ 0.008 | 0.06 (≈ 0.149 µM) | 0.03 (≈ 0.0747 µM) | 0.04 (≈ 0.0996 µM) | 0.03 (≈ 0.0747 µM) | 0.03 (≈ 0.0747 µM) | 0.03 (≈ 0.0747 µM) | 0.03 (≈ 0.0747 µM) | 0.06 (≈ 0.149 µM) | 0.06 (≈ 0.149 µM) | 0.25 (≈ 0.623 µM) | 0.03 (≈ 0.0747 µM) | 0.06 (≈ 0.149 µM) | 8 (≈ 19.9 µM) | 0.015 (≈ 0.0374 µM) | 0.25 (≈ 0.623 µM) | 0.5 (≈ 1.25 µM) | 0.015 (≈ 0.0374 µM) |
| CC(C)/N=c1\cc2n(-c3ccc(Cl)cc3)c3ccccc3nc-2cc1Nc1ccc(Cl)cc1 [Clofazimine] | – | 0.03 (≈ 0.0634 µM) | 1 (≈ 2.11 µM) | 0.12 (≈ 0.253 µM) | – | – | – | 0.008 (≈ 0.0169 µM) | 0.06 (≈ 0.127 µM) | – | – | 0.12 (≈ 0.253 µM) | 0.12 (≈ 0.253 µM) | 0.03 (≈ 0.0634 µM) | 0.06 (≈ 0.127 µM) | 0.06 (≈ 0.127 µM) | – | 0.06 (≈ 0.127 µM) | 1 (≈ 2.11 µM) |

Other lines, results leading:

| MIC (REMA) [1] [µg/mL] | MIC (REMA) [2] [µg/mL] | MIC (REMA) [3] [µg/mL] | MIC (REMA) [4] [µg/mL] | MIC (REMA) [5] [µg/mL] | MIC (REMA) [6] [µg/mL] | MIC (REMA) [7] [µg/mL] | MIC (REMA) [8] [µg/mL] | MIC (REMA) [9] [µg/mL] | MIC (REMA) [10] [µg/mL] | MIC (REMA) [11] [µg/mL] | MIC (REMA) [12] [µg/mL] | MIC (REMA) [13] [µg/mL] | MIC (REMA) [14] [µg/mL] | MIC (REMA) [15] [µg/mL] | MIC (REMA) [16] [µg/mL] | MIC (REMA) [17] [µg/mL] | MIC (REMA) [18] [µg/mL] | MIC (REMA) [19] [µg/mL] | Compound |
| --- | --- | --- | --- | --- | --- | --- | --- | --- | --- | --- | --- | --- | --- | --- | --- | --- | --- | --- | --- |
| > 32 | > 32 | 2 (≈ 4.13 µM) | 1 (≈ 2.06 µM) | 0.5 (≈ 1.03 µM) | 1 (≈ 2.06 µM) | 1 (≈ 2.06 µM) | 0.5 (≈ 1.03 µM) | 1 (≈ 2.06 µM) | 2 (≈ 4.13 µM) | 0.5 (≈ 1.03 µM) | 1 (≈ 2.06 µM) | 2 (≈ 4.13 µM) | 2 (≈ 4.13 µM) | 0.5 (≈ 1.03 µM) | 1 (≈ 2.06 µM) | > 32 | 2 (≈ 4.13 µM) | 1 (≈ 2.06 µM) | NC[C@H]1O[C@H](O[C@H]2[C@H](O)[C@@H](O[C@H]3O[C@H](CO)[C@@H](O)[C@H](N)[C@H]3O)[C@H](N)C[C@@H]2N)[C@H](O)[C@@H](O)[C@@H]1O [Kanamycin] |
| 0.015 (≈ 0.0182 µM) | 2 (≈ 2.43 µM) | 0.03 (≈ 0.0365 µM) | – | 0.03 (≈ 0.0365 µM) | > 4 | 0.06 (≈ 0.0729 µM) | – | 0.015 (≈ 0.0182 µM) | > 4 | > 4 | – | – | – | > 4 | – | > 4 | > 4 | – | CO[C@H]1/C=C/O[C@@]2(C)Oc3c(C)c(O)c4c(O)c(c(/C=N/N5CCN(C)CC5)c(O)c4c3C2=O)NC(=O)/C(C)=C\C=C\[C@H](C)[C@H](O)[C@@H](C)[C@@H](O)[C@@H](C)[C@H](OC(C)=O)[C@@H]1C [Rifampicin] |
| > 16 | > 16 | – | – | 0.25 (≈ 0.427 µM) | – | – | 0.125 (≈ 0.213 µM) | – | – | 0.25 (≈ 0.427 µM) | 0.25 (≈ 0.427 µM) | – | – | 0.25 (≈ 0.427 µM) | – | > 16 | – | 0.25 (≈ 0.427 µM) | NCC[C@H](O)C(=O)N[C@@H]1C[C@H](N)[C@@H](O[C@H]2O[C@H](CN)[C@@H](O)[C@H](O)[C@H]2O)[C@H](O)[C@H]1O[C@H]1O[C@H](CO)[C@@H](O)[C@H](N)[C@H]1O [Amikacin] |
| ≤ 0.004 | 0.125 (≈ 0.148 µM) | 0.008 (≈ 0.00944 µM) | ≤ 0.004 | ≤ 0.004 | > 2 | ≤ 0.004 | ≤ 0.004 | ≤ 0.004 | > 2 | 1 (≈ 1.18 µM) | ≤ 0.004 | ≤ 0.004 | ≤ 0.004 | 1 (≈ 1.18 µM) | ≤ 0.004 | 2 (≈ 2.36 µM) | 2 (≈ 2.36 µM) | ≤ 0.004 | CO[C@H]1/C=C/O[C@@]2(C)Oc3c(C)c(O)c4c(c3C2=O)C2=NC3(CCN(CC(C)C)CC3)NC2=C(NC(=O)/C(C)=C\C=C\[C@H](C)[C@H](O)[C@@H](C)[C@@H](O)[C@@H](C)[C@H](OC(C)=O)[C@@H]1C)C4=O [Rifabutin] |
| 0.25 (≈ 0.741 µM) | 0.03 (≈ 0.0889 µM) | 0.25 (≈ 0.741 µM) | 0.25 (≈ 0.741 µM) | 0.06 (≈ 0.178 µM) | 0.25 (≈ 0.741 µM) | 0.125 (≈ 0.371 µM) | 0.25 (≈ 0.741 µM) | 0.25 (≈ 0.741 µM) | 0.25 (≈ 0.741 µM) | 0.125 (≈ 0.371 µM) | 0.25 (≈ 0.741 µM) | 0.5 (≈ 1.48 µM) | 0.5 (≈ 1.48 µM) | 0.25 (≈ 0.741 µM) | 0.125 (≈ 0.371 µM) | 0.25 (≈ 0.741 µM) | 0.25 (≈ 0.741 µM) | 0.25 (≈ 0.741 µM) | CC(=O)NC[C@H]1CN(c2ccc(N3CCOCC3)c(F)c2)C(=O)O1 [Linezolid] |
